The assay relates to L1210 leukemia ip in BDF1 mice, survival T/C. Kind of assay: NCI In Vivo Anticancer Drug Screen. Data for tumor model L1210 Leukemia (intraperitoneal) in B6D2F1 (BDF1) mice. The conditions noted are these: endpoint: mean survival time, higher = longer survival. An outline of the steps: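 Transplanted-tumor mice were given test agent; controls received vehicle only. Survival readings from the two groups were divided (treated over control).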

The mark [1] stands for this setting: dose: 100.0 mg/kg/injection, schedule: Q01DX009 (ip), vehicle: Klucel (hydroxypropylcellulose) (HPC).
Setting [2] is: dose: 200.0 mg/kg/injection, schedule: Q01DX009 (ip), vehicle: Klucel (hydroxypropylcellulose) (HPC).
The mark [3] stands for this setting: dose: 400.0 mg/kg/injection, schedule: Q01DX009 (ip), vehicle: Klucel (hydroxypropylcellulose) (HPC).
[4] abbreviates: dose: 100.0 mg/kg/injection, schedule: Q01DX009 (ip), vehicle: saline with Tween-80.
Where [5] appears, read: dose: 200.0 mg/kg/injection, schedule: Q01DX009 (ip), vehicle: saline with Tween-80.
Where [6] appears, read: dose: 400.0 mg/kg/injection, schedule: Q01DX009 (ip), vehicle: saline with Tween-80.
Setting [7] is: dose: 100.0 mg/kg/injection, schedule: Q01DX001 (ip), vehicle: Klucel (hydroxypropylcellulose) (HPC).
[8] abbreviates: dose: 100.0 mg/kg/injection, schedule: Q04DX002 (ip), vehicle: Klucel (hydroxypropylcellulose) (HPC).
Where [9] appears, read: dose: 200.0 mg/kg/injection, schedule: Q01DX001 (ip), vehicle: Klucel (hydroxypropylcellulose) (HPC).
[10] abbreviates: dose: 200.0 mg/kg/injection, schedule: Q04DX002 (ip), vehicle: Klucel (hydroxypropylcellulose) (HPC).
[11] abbreviates: dose: 400.0 mg/kg/injection, schedule: Q04DX002 (ip), vehicle: Klucel (hydroxypropylcellulose) (HPC).
Where [12] appears, read: dose: 100.0 mg/kg/injection, schedule: Q04DX003 (ip), vehicle: Klucel (hydroxypropylcellulose) (HPC).
Setting [13] is: dose: 200.0 mg/kg/injection, schedule: Q04DX003 (ip), vehicle: Klucel (hydroxypropylcellulose) (HPC).
[14] abbreviates: dose: 400.0 mg/kg/injection, schedule: Q04DX003 (ip), vehicle: Klucel (hydroxypropylcellulose) (HPC).
The mark [15] stands for this setting: dose: 25.0 mg/kg/injection, schedule: Q01DX009 (ip), vehicle: saline.
The mark [16] stands for this setting: dose: 50.0 mg/kg/injection, schedule: Q01DX009 (ip), vehicle: saline.
Setting [17] is: dose: 100.0 mg/kg/injection, schedule: Q01DX001 (ip), vehicle: saline.
Setting [18] is: dose: 200.0 mg/kg/injection, schedule: Q01DX001 (ip), vehicle: saline.
Where [19] appears, read: dose: 400.0 mg/kg/injection, schedule: Q01DX001 (ip), vehicle: saline.
Where [20] appears, read: dose: 200.0 mg/kg/injection, schedule: Q01DX001 (ip), vehicle: carboxymethylcellulose (CMC).
Where [21] appears, read: dose: 400.0 mg/kg/injection, schedule: Q01DX001 (ip), vehicle: carboxymethylcellulose (CMC).

Values joined by “and” are separate entries in the source; they are usually repeats but may differ in a detail not shown here. Equal entries are not always repeated. Toxic doses and inconclusive results are not listed.

Regarding `COC(=O)c1cc(C)c(I)c([N+](=O)[O-])c1`, the T/C is 109 % of control under setting [1], 102 % of control under setting [2] and 98 % of control under setting [3].
Regarding `Cc1c(N)cc([N+](=O)[O-])c(C)c1[N+](=O)[O-]`, the T/C is 100 % of control (dose: 50.0 mg/kg/injection, schedule: Q04DX003 (ip), vehicle: saline with Tween-80); 96 % of control (dose: 100.0 mg/kg/injection, schedule: Q04DX003 (ip), vehicle: saline with Tween-80); 100 % of control (dose: 200.0 mg/kg/injection, schedule: Q04DX003 (ip), vehicle: saline with Tween-80).
As to `CCCCN(CCCC)C(=N)C(=N)N(CCCC)CCCC`, the T/C was 100 % of control (dose: 50.0 mg/kg/injection, schedule: Q04DX002 (ip), vehicle: saline with Tween-80) and 100 % of control (dose: 100.0 mg/kg/injection, schedule: Q04DX002 (ip), vehicle: saline with Tween-80).
Turning to `Cc1ccccc1NC(=O)C1CCC(C)(C(=O)O)C1(C)C` (stereo not drawn), the T/C runs as follows: under setting [4], 102 % of control; under setting [5], 102 % of control; under setting [6], 95 % of control.
On to `Cn1ccnc1CC(C)(O)c1ccccc1` (stereo not drawn), for which the T/C was 92 % of control under setting [7]; 97 % of control and 98 % of control under setting [1]; 96 % of control under setting [8]; 97 % of control under setting [9]; 108 % of control and 88 % of control under setting [2]; 108 % of control under setting [10]. The T/C runs as follows: under setting [3], 102 % of control; under setting [11], 103 % of control.
As to `CCCCC(CC)C(O)C1CCCCC1O` (stereo not drawn), the T/C is, setting by setting: under setting [1], 102 % of control; under setting [12], 101 % of control; under setting [2], 96 % of control; under setting [13], 96 % of control; under setting [3], 86 % of control; under setting [14], 102 % of control.
In the case of `Cc1coc2ccccc2c1=O`, the T/C was 114 % of control (dose: 50.0 mg/kg/injection, schedule: Q04DX002 (ip), vehicle: gum acacia); 117 % of control (dose: 100.0 mg/kg/injection, schedule: Q04DX002 (ip), vehicle: gum acacia); 107 % of control (dose: 200.0 mg/kg/injection, schedule: Q04DX002 (ip), vehicle: gum acacia).
With `CCN(CC)CCN(C)CC(=O)Nc1cccc(Cl)c1C`, the T/C reads like this: under setting [15], 106 % of control; under setting [16], 93 % of control; (dose: 75.0 mg/kg/injection, schedule: Q01DX001 (ip), vehicle: saline) 101 % of control; (dose: 100.0 mg/kg/injection, schedule: Q01DX009 (ip), vehicle: saline) 98 % of control; (dose: 150.0 mg/kg/injection, schedule: Q01DX001 (ip), vehicle: saline) 102 % of control; (dose: 150.0 mg/kg/injection, schedule: Q01DX009 (ip), vehicle: saline) 100 % of control.
Turning to `CCCC1(CCC)c2ccccc2C(=O)c2ccccc21`, the T/C is 105 % of control under setting [7]; 100 % of control under setting [12]; 96 % of control under setting [9]; 96 % of control under setting [13]; 105 % of control (dose: 400.0 mg/kg/injection, schedule: Q01DX001 (ip), vehicle: Klucel (hydroxypropylcellulose) (HPC)); 95 % of control under setting [14].
Regarding `CCCCCCCSc1ncnc2c1ncn2CO`, the T/C was 104 % of control under setting [16]; 107 % of control (dose: 80.0 mg/kg/injection, schedule: Q01DX009 (ip), vehicle: saline); 101 % of control under setting [17]; 114 % of control (dose: 117.0 mg/kg/injection, schedule: Q01DX009 (ip), vehicle: other); 104 % of control (dose: 120.0 mg/kg/injection, schedule: Q01DX009 (ip), vehicle: saline); 95 % of control under setting [18]. Moreover, the T/C was 115 % of control under setting [19] and 164 % of control (dose: 400.0 mg/kg/injection, schedule: Q01DX009 (ip), vehicle: saline).
For the molecule `Cc1ccc([N+](=O)[O-])cc1`, the T/C is 103 % of control under setting [8], 103 % of control under setting [10] and 95 % of control under setting [11].
In the case of `N#CCCCCCl`, the T/C was 103 % of control (dose: 6.0 mg/kg/injection, schedule: Q01DX009 (ip), vehicle: saline); 105 % of control (dose: 12.0 mg/kg/injection, schedule: Q01DX009 (ip), vehicle: saline); 97 % of control (dose: 12.0 mg/kg/injection, schedule: Q04DX003 (ip), vehicle: saline); 103 % of control under setting [15]; 96 % of control (dose: 25.0 mg/kg/injection, schedule: Q04DX003 (ip), vehicle: saline).
For the molecule `Oc1ccc(C2SC(c3ccc(O)cc3)SC(c3ccc(O)cc3)S2)cc1` (stereo not drawn), the T/C under setting [20] was 88 % of control and the T/C under setting [21] was 88 % of control.
Turning to `NC1=NC(=S)C2N=C(N=Nc3ccc(C(=O)NC(CCC(=O)O)C(=O)O)cc3)N=C2N1` (stereo not drawn), the T/C was 156 % of control and 177 % of control and 194 % of control (dose: 1.56 mg/kg/injection, schedule: Q01DX009 (ip), vehicle: Klucel (hydroxypropylcellulose) (HPC)); 189 % of control (dose: 3.13 mg/kg/injection, schedule: Q01DX009 (ip), vehicle: Klucel (hydroxypropylcellulose) (HPC)); 120 % of control (dose: 25.0 mg/kg/injection, schedule: Q01DX009 (ip), vehicle: Klucel (hydroxypropylcellulose) (HPC)); 121 % of control (dose: 50.0 mg/kg/injection, schedule: Q01DX009 (ip), vehicle: Klucel (hydroxypropylcellulose) (HPC)); 114 % of control (dose: 50.0 mg/kg/injection, schedule: Q04DX003 (ip), vehicle: Klucel (hydroxypropylcellulose) (HPC)); 88 % of control under setting [1].
In the case of `O=C(OCCBr)Oc1cccc2ccccc12`, the T/C by setting is: (dose: 100.0 mg/kg/injection, schedule: Q01DX001 (ip), vehicle: carboxymethylcellulose (CMC)) 98 % of control; under setting [20], 93 % of control; under setting [21], 95 % of control.
Take `CC(=O)Nc1ccc(Br)c(NC(C)=O)n1`: the T/C is, setting by setting: under setting [4], 109 % of control; under setting [5], 101 % of control; under setting [6], 112 % of control.
In the case of `COc1cccc(N=Nc2c(N)nc(N)nc2N)c1`, the T/C is 104 % of control (dose: 75.0 mg/kg/injection, schedule: Q01DX001 (ip), vehicle: carboxymethylcellulose (CMC)); 100 % of control (dose: 150.0 mg/kg/injection, schedule: Q01DX001 (ip), vehicle: carboxymethylcellulose (CMC)); 109 % of control (dose: 300.0 mg/kg/injection, schedule: Q01DX001 (ip), vehicle: carboxymethylcellulose (CMC)).
Regarding `NC1CCS(=O)(=O)C1` (stereo not drawn), the T/C under setting [17] was 95 % of control, the T/C under setting [18] was 98 % of control and the T/C under setting [19] was 101 % of control.
Consider `CN(C)Cc1ccc(NC(=O)c2ccc(C(=O)Nc3ccc(CN(C)C)cc3)cc2)cc1`, for which the T/C was 103 % of control (dose: 15.0 mg/kg/injection, schedule: Q01DX Z (ip), vehicle: carboxymethylcellulose (CMC)); 106 % of control (dose: 30.0 mg/kg/injection, schedule: Q01DX Z (ip), vehicle: carboxymethylcellulose (CMC)); 106 % of control (dose: 60.0 mg/kg/injection, schedule: Q01DX Z (ip), vehicle: carboxymethylcellulose (CMC)); 117 % of control (dose: 120.0 mg/kg/injection, schedule: Q01DX Z (ip), vehicle: carboxymethylcellulose (CMC)).
Take `CCc1nc(N)nc(-c2ccccc2)c1-c1ccc([N+](=O)[O-])cc1O`: the T/C was 98 % of control under setting [12], 95 % of control under setting [13] and 97 % of control under setting [14].

Source of the values: PubChem BioAssay AID248 (DTP/NCI, 2004).
